{"source": "patent US20040038968A1", "about": "“Thiazolidinedione derivative and its use as antidiabetic” (priority 2000, published 2004)", "key": {"[1]": {"assay": "Solubility in water (visual, confirmed by HPLC assay of a saturated solution)", "format": "physicochemical", "details": "thermodynamic from solid", "procedure": "The solubility of the material was determined by adding water in aliquots from […] to approximately 100 mg of drug substance until the powder had dissolved. The visual solubility was confirmed by an HPLC assay of a saturated solution. Solubility: >100 mg/ml."}, "[2]": {"assay": "Solid state stability (storage for 1 month, HPLC assay)", "format": "physicochemical", "details": "glass bottle", "protocol": "The solid state stability of the drug substance was determined by storing approximately 1.0 g of the material in a glass bottle at a) 40° C./75 % Relative Humidity (RH), open exposure, for 1 month and b) at 50° C., closed, for 1 month. The material was assayed by HPLC for final content and degradation products in both cases."}}}
{"compound": "CN(CCOc1ccc(CC2SC(=O)NC2=O)cc1)c1ccccn1.[K]", "note": "(centres unmarked) [Potassium Salt, 5-[4-[2-(N-Methyl-N-(2-pyridyl)amino)ethoxy]benzyl]thiazolidine-2,4-dione, potassium salt]", "values": [{"measurement": "solubility", "setting": "[1]", "value": "> 100", "unit": "mg/mL"}, {"measurement": "Degradation (HPLC, degradation products)", "setting": "[2]; 40° C./75% RH, open exposure", "value": "No significant degradation observed"}, {"measurement": "HPLC assay for final content", "setting": "[2]; 40° C./75% RH, open exposure", "value": 101, "unit": "% initial"}, {"measurement": "Degradation (HPLC, degradation products)", "setting": "[2]; 50° C., closed", "value": "No significant degradation observed"}, {"measurement": "HPLC assay for final content", "setting": "[2]; 50° C., closed", "value": 99, "unit": "% initial"}]}
